Like-named read-outs stand apart in the source and are kept apart here.
How the values were obtained:
[1] = system: Rinderherz PDE "Boehringer"; assay: Inhibition of phosphodiesterase (PDE), substrate cAMP; format: biochemical, Rind; conditions: compound 0,2 mM; substrate cAMP 0,15 mM; Rinderherz PDE in Glycerin; 200 µM
Method: Die Tabelle 1. gibt die gefundenen Werte der Hemmung der Phosphodiesterase (PDE) an. Es wurde Rinderherz PDE "Boehringer" in Glycerin und als Substrat cAMP (0,15 mM) verwendet. Die Konzentration der untersuchten Verbindungen war 0,2 mM.

[2] = system: durch Methanol hervorgerufene Retinaschädigung; assay: Retinotropic effect measured on the mouse electroretinogram (antagonism of methanol-induced retinal damage); format: in vivo, Maus; conditions: for Retinotrope Wirkung [%]: Elektroretinogramm der Maus; for retinotrope Wirkung (in words): in the dose range in which the compounds of the invention were tested
Text: Die Versuchsmethodik ist bei K.K.Gauri und W.Hohl, Der Augenspiegel, 1979 (Heft 9), und […] Referenzen beschrieben.

[3] = system: Trachealspangen-Kette des Meerschweinchens; assay: Relaxation of the spontaneously contracted guinea pig tracheal ring chain in vitro (organ bath); parameters: species or system Meerschweinchen; conditions: for Relative Wirkungsstärke (Theophyllin=1,00): relative to Theophyllin, from ED50 of tracheal relaxation; for EC50: relaxation as fraction of maximum by (-)Isoprenalin 10^-6 mol/l, cumulative concentrations, 37°C, read-out: ED50 (Dosis der halbmaximal möglichen Relaxation)
Method: Weiterhin wurde die relaxierende Wirkung erfindungsgemäBer Verbindungen auf die Trachealspangen-Kette des Meerschweinchens in vitro geprüft:
Vier parallele, aus jeweils 6 Einzelringen bestehende Trachealspangen-Ketten des Meerschweinchens (♂ und ♀, 430-600 g) im Organbad (5 ml, Krebs-Henseleit-Lösung mit Zusatz von Phentolamin (10^-5 mol/l, 37°C, Vorspannung der Organe 2 g, Begasung mit Carbogen) entwickeln nach etwa 20 bis 30 Minuten eine stabile, tonische Spontankontraktur. An diesen dauerkontrahierten Organen kann unter isometrischen Meßbedingungen durch Applikation der Prüfsubstanz in kumulativhalblogarithmisch ansteigender Konzentration (z.B. 1x10^-6 + 2x10^-6 + 7x10^-6 + 2x10^-5 usw. mol/l) eine Relaxation herbeigeführt werden, wobei nach jeder Einzeldosis der Testsubstanz eine konstante Relaxations-Antwort abgewartet wird, bevor die nächst höhere Konzentration appliziert wird. Ober einen Zeitraum von 20 bis 30 Minuten wird somit eine vollständige Dosis-Wirkungskurve der Testsubstanz erhalten. Die jeweilige Relaxation wird als Prozentbruchteil der durch Gabe von (-)Isoprenalin (10^-6 mol/1) maximal erreichbaren Relaxation ausgedrückt.
In Tabelle 3 sind die ED50 (Dosis der halbmaximal möglichen Relaxation) und die relative Wirkungsstärke im Vergleich zu Theophyllin für erfindungsgemäße Verbindungen angegeben.

| Hemmung der PDE in % [1] | EC50 [3] [µM] | SMILES | Relative Wirkungsstärke (Theophyllin=1,00) [3] | further results |
| --- | --- | --- | --- | --- |
| 47,84% |  | CCCCCCn1c(=O)n(C)c(=O)c2c[nH]nc21 [I, 7-n-Hexyl-4,5,6,7-tetrahydro-5-methyl-4,6-dioxo-2H-pyrazolo[3,4-d]-pyrimidin] |  |  |
| 47,41% |  | CCCCCCn1c(=O)n(C)c(=O)c2cn(C)nc21 [II, 7-n-Hexyl-4,5,6,7-tetrahydro-2,5-dimethyl-4,6-dioxo-2H-pyrazolo[3,4-d]-pyrimidin] |  |  |
| 58,51% |  | CCCCCCn1c(=O)n(C)c(=O)c2cn(CC)nc21 [III, 2-Ethyl-7-n-hexyl-4,5,6,7-tetrahydro-5-methyl-4,6-dioxo-2H-pyrazolo-[3,4-d]pyrimidin] |  | Retinotrope Wirkung [%] ([2]; Dosis 1 mg/kg): +24% |
| 63,04% |  | CCCCCCn1c(=O)n(C)c(=O)c2cn(CCC)nc21 [IV, 7-n-Hexyl-4,5,6,7-tetrahydro-5-methyl-4,6-dioxo-2-n-propyl-2H-pyrazolo-[3,4-d]pyrimidin] |  |  |
| 71,52% | 38 | CCCCCCn1c(=O)c2cn(CC)nc2n(C)c1=O [IX, 2-Ethyl-5-n-hexyl-4,5,6,7-tetrahydro-7-methyl-4,6-dioxo-2H-pyrazolo-[3,4-d]pyrimidin] | 3,4 | Retinotrope Wirkung [%] ([2]; Dosis 1 mg/kg): +12% |
| 70,86% | 62 | CCCCCCn1c(=O)n(C)c(=O)c2cn(CCCC)nc21 [V, 2-n-Butyl-7-n-hexyl-4,5,6,7-tetrahydro-5-methyl-4,6-dioxo-2H-pyra-zolo-[3,4-d]pyrimidin] | 1,8 |  |
| 52,43% |  | CCCCCCn1c(=O)c2cn[nH]c2n(C)c1=O [VII, 5-n-Hexyl-4,5,6,7-tetrahydro-7-methyl-4,6-dioxo-1H-pyrazolo[3,4-d]-pyrimidin] |  |  |
| 42,04% |  | CCCCCCn1c(=O)c2cn(C)nc2n(C)c1=O [VIII, 5-n-Hexyl-4,5,6,7-tetrahydro-2,7-dimethyl-4,6-dioxo-2H-pyrazolo-[3,4-d]pyrimidin] |  |  |
| 37,83% |  | CCCCCCn1c(=O)c2cn(CCCC)nc2n(C)c1=O [X, 2-n-Butyl-5-n-hexyl-4,5,6,7-tetrahydro-7-methyl-4,6-dioxo-2H-pyra-zolo[3,4-d]pyrimidin] |  |  |
|  | 95 | CCCCCCn1c(=O)n(C)c(=O)c2cnn(C)c21 [XIII, 7-Hexyl-4,5,6,7-tetrahydro-1,5-dimethyl-4,6-dioxo-1H-pyrazolo-[3,4-d]pyrimidin] | 1,4 |  |

More lines, now with the values behind:

| SMILES | Hemmung der PDE in % [1] | EC50 [3] [µM] | Relative Wirkungsstärke (Theophyllin=1,00) [3] | further results |
| --- | --- | --- | --- | --- |
| CC(=O)CCCCn1c(=O)c2c(ncn2C)n(C)c1=O [Pentoxifyllin, reference compound] |  |  |  | Retinotrope Wirkung [%] ([2]; Dosis 6,25 mg/kg): 0%; retinotrope Wirkung (in words) [2]: noch keine retinotrope Wirkung |
| Cn1c(=O)c2[nH]cnc2n(C)c1=O [Theophyllin, reference compound] | 37,13% | 130 | 1,00 | Retinotrope Wirkung [%] ([2]; Dosis 10 mg/kg): 0%; retinotrope Wirkung (in words) [2]: noch keine retinotrope Wirkung |
| CCCCCCn1cc2c(=O)n(C)c(=O)n(CCCCCC)c2n1 [VI, 2,7-Di-n-hexyl-4,5,6,7-tetrahydro-5-methyl-4,6-dioxo-2H-pyrazolo[3,4-d]-pyrimidin] | 37,30% |  |  |  |
| CCCCCCn1cc2c(=O)n(CCCCCC)c(=O)n(C)c2n1 [XI, 2,5-Di-n-hexyl-4,5,6,7-tetrahydro-7-methyl-4,6-dioxo-2H-pyrazolo-[3,4-d]pyrimidin] | 18,35% |  |  |  |
| CCCCCCn1c(=O)c2cn(C(=O)c3cc(OC)c(OC)c(OC)c3)nc2n(C)c1=O [XII, 5-n-Hexyl-4,5,6,7-tetrahydro-2-(3,4,5-trimethoxybenzoyl)-7-methyl-4,6-dioxo-2H-pyrazolo[3,4-d]pyrimidin] |  |  | 3,7 | Retinotrope Wirkung [%] ([2]; Dosis 1 mg/kg): +40%; EC50 ([3]; Cavia porcellus): 350 µM |
| COc1cc(C(=O)n2cc3c(=O)n(CC(C)C)c(=O)n(C)c3n2)cc(OC)c1OC [XVI, 5-i-Butyl-4,5,6,7-tetrahydro-2-(3,4,5-trimethoxybenzoyl)-7-methyl-4,6-dioxo-2H-pyrazolo[3,4-d]pyrimidin] |  | 75 | 1,7 |  |
| CCn1c(=O)n(CCCCC(C)=O)c(=O)c2cnn(C)c21 [XVII, 7-Ethyl-4,5,6,7-tetrahydro-1-methyl-4,6-dioxo-5'-(5-oxo-n-hexyl)-1H-pyrazolo[3,4-d]pyrimidin] |  | 66 | 2,0 | Retinotrope Wirkung [%] ([2]; Dosis 2 mg/kg): +80% |
| CC(C)Cn1c(=O)n(C)c(=O)c2cn(CCO)nc21 [XVIII, 7-j-Butyl-4,5,6,7-tetrahydro-2-(2-hydroxyethyl)-5-methyl-4,6-dioxo-2H-pyrazolo[3,4-d]pyrimidin] |  | 13 | 10,0 |  |
| CC(C)Cn1c(=O)n(C)c(=O)c2c[nH]nc21 [XV] |  | 17 | 7,6 |  |
